Test results reported in patent publication US4812462A, “4,5,6,7-tetrahydro-1H-imidazo[4,5-c]pyridine-6-carboxylic acid analogs having antihypertensive activity” (Warner-Lambert Company, priority 1986, dated 1989).
Structures can show the parent of a compound that is named as a salt.

What was measured:
[1] = tested on: 2 kidney, 1-clip Goldblatt hypertensive rat (RHR); experiment: blood pressure lowering in conscious 2 kidney, 1-clip Goldblatt (renal) hypertensive rats (RHR), AHP3; assay type: in vivo; details: 30 mg/kg ip, read-out: Max % decrease in blood pressure, 30 mg/kg ip in RHR
Procedure: (§1) Thus, for example, compounds of formula I when administered intraperitoneally or orally to 2 kidney, 1-clip Goldblatt (renal) hypertensive rats (See S Sen, et al., "Role of Renin-Angiotensin System in Chronic Renal Hypertensive Rats," Hypertension 1:427-434 (1979) and Clin. Soc. 57:53-62, 1979, "Antihypertensive Effect of Prolonged Blockade of Angiotensin Formation in Benign and Malignant, one-and two-kidney Goldblatt Hypertensive Rats".) at doses in the range of 1-100 mg/kg cause 10-80 mmHg drops in blood pressure. […] Angiotensin binding inhibition activity and blood pressure lowering activity in renal hypertensive rats of the optimally substituted examples of formula I are listed in Table 1. Blood pressure lowering activity in spontaneously hypertensive rats of optimally substituted examples of formula II are listed in Table 2.
(§2) […] EVALUATION (AHP3)
(§3) A Method for the Direct Monitoring of Aortic Blood Pressure and Heart Rate from Conscious Rats
(§4) The continuous monitoring of pulsatile blood pressure (BP) from unrestrained conscious rats surgically equipped with polyethylene cannulas was accomplished by means of a computer assisted data capture scheme (CADCS). The basic elements of the methodology are the cannulation procedure and the CADCS.
(§5) Rats were anesthetized with Telazol (1:1 tiletamine HCl and zolazepam HCl); 20-40 mg/kg IM and the descending aorta exposed via a midline incision. Cannulas fabricated from polyethylene tubing were inserted into the aorta via an undersized puncture hole below the renal arteries. The puncture hole was made by a 23 G disposable needle with a section of the aorta clamped off above and below the puncture site. The cannulas, consisting of a PE100 (0.86 mm ID) body and a PE50 (0.58 mm ID) tip, were attached to a trocar, inserted through the psoas muscle, and passed subcutaneously along the midline of the back and externalized between the ears. The cannulas were anchored to the psoas muscle and between the scalulae (3-0 green braided suture). The midline incision was closed in two steps (muscle first, skin second) using continuous over-and-over sutures (4-0 chronic). Each rat was then given penicillin 30,000 units subcutaneously (Penicillin G Procaine Sterile Suspension).
(§6) The rats were fitted with a harness-springswivel assembly designed to protect the cannula and to provide the rat relative freedom of movement. The harnesses were fabricated from nylon hook and loop tape cemented to a metal plate to which spring wires (18-8 stainless steel), were attached to brass swivels. Each polyethylene cannula was channeled through a spring and connected through a swivel to a pressure transducer (Model P23Gb; Statham Instruments; Hato Rey, Puerto Rico) and an infusion pump (Sage model 234-7; Orion Research, Cambridge, Mass.) by means of PE100 tubing. While on test, each rat received a continuous slow infusion of heparinized saline solution (approximately 0.40 ml or 40 units of heparin per 24 hr period) to prevent clot formation. Additional "flushes" of the cannula with heparinized saline were carried out when the aortic pulse pressure (systolic minus diastolic) was less than 25 mm Hg.
(§7) The pulsatile blood pressure of each of 32 rats was monitored continuously by two signal conditioning units (Gould, Clev., Ohio). The signals from these units were monitored and digital data for mean, systolic, and diastolic blood pressures as well as for heart rate were calculated every 5 min by two in-laboratory computers (Hewlett Packard, Cupertino, Calif.). These in-laboratory computers have the capacity to store 32 days of this 5 min data. Communication with the mainframe research computer (IBM 3083) from the two inlaboratory computers allowed for data analysis and report generation. […]

[2] = molecular target: angiotensin II binding to rat adrenal receptor preparations; experiment: inhibition of 125I-angiotensin II binding to rat adrenal receptor preparations
[3] = tested on: spontaneously hypertensive rat (SHR); experiment: blood pressure lowering in conscious spontaneously hypertensive rats (SHR), AHP3; assay type: in vivo; details: 30 mg/kg PO, read-out: Max % decrease in blood pressure, 30 mg/kg PO in SHR
Procedure: as §1, §2, §3, §4, §5, §6, §7

| IC50 [2] [µM] | SMILES | change in vivo at 30 mg/kg [1] [%] | change in vivo at 30 mg/kg [3] [%] |
| --- | --- | --- | --- |
|  | Cc1cc(Cn2cnc3c2CC(C(=O)O)N(C(=O)C(c2ccccc2)c2ccccc2)C3)ccc1N (stereo not drawn) [Example 13, 1-(4-Amino-3-methylphenyl)methyl-5-diphenylacetyl-4,5,6,7-tetrahydro-1H-imidazo[4,5-c]pyridine-6-carboxylic acid] | -22 |  |
| 0.27 | Cc1cccc(Cn2cnc3c2C[C@@H](C(=O)O)N(C(=O)C(c2ccccc2)c2ccccc2)C3)c1 [Example 75, 1H-Imidazo[4,5-c]pyridine-6-carboxylic acid, 5-(diphenylacetyl)-4,5,6,7-tetrahydro-1-[(3-methylphenyl)methyl]-, (S)-] | -30 |  |
|  | COc1ccc(N2C(=O)C3Cc4[nH]cnc4CN3C2=O)c(OC)c1 (stereo not drawn) [Example 157, 7-(2,4-Dimethoxyphenyl)-8a,9-dihydro-1H-diimidazo[1,5-a:4',5'-d]pyridine-6,8(4H,7H)-dione] |  | -22 |
| 2.4 | O=C(O)C1Cc2c(ncn2CCc2ccccc2)CN1C(=O)Cc1ccccc1 (stereo not drawn) [Example 6, 1-(2-Phenylethyl)-5-phenylacetyl-4,5,6,7-tetrahydro-1H-imidazo[4,5-c]pyridine-6-carboxylic acid] | -16 |  |
|  | CN(C)c1ccc(N2C(=O)C3Cc4[nH]cnc4CN3C2=S)cc1 (stereo not drawn) [Example 160, 7-[4-(Dimethylamino)phenyl]-1,4,6,7,8a,9-hexahydro-6-thioxo-8H-diimidazo[1,5-a:4',5'-d]pyridine-8-one] |  | -34 |
|  | COc1ccc(N2C(=O)C3Cc4c(ncn4Cc4ccccc4)CN3C2=O)cc1 (stereo not drawn) [Example 133, 1H-Diimidazo[1,5-a:4',5'-d]pyridine-6,8(4H,7H)-dione, 8a,9-dihydro-7-(4-methoxyphenyl)-1-(phenylmethyl)-, monohydrochloride] |  | -29 |
|  | CC(C)N1C(=O)[C@@H]2Cc3ncn(C)c3CN2C1=O [Example 129, (S)-8a,9-dihydro-3-methyl-7-(1-methylethyl)-3H-diimidazo-[1,5-a:4',5'-d]pyridine-6,8(4H,7H)-dione] |  | -36 |
|  | CC(C)(C)N1C(=O)C2Cc3[nH]cnc3CN2C1=O (stereo not drawn) [Example 156, 7-(1,1-Dimethylethyl)-8a,9-dihydro-1H-diimidazo[1,5-a:4',5'-d]pyridine-6,8(4H,7H)-dione] |  | -18 |
|  | COc1ccc(N2C(=O)C3Cc4c(ncn4Cc4ccc(OC)c(C)c4)CN3C2=S)cc1 (stereo not drawn) [Example 127, 6,7,8a,9-Tetrahydro-1-[(4-methoxy-3-methylphenyl)-methyl]-7-(4-methoxyphenyl)-6-thioxo-1H-diimidazo-[1,5-a:4',5'-d]-pyridine-8(4H)-one] |  | -24 |
| 0.07 | COc1ccc(Cn2cnc3c2C[C@@H](C(=O)O)N(C(=O)C(c2ccccc2)C2CCCC2)C3)cc1C (stereo partly drawn) [Example 24, (S)-5-(cyclopentylphenylacetyl)-4,5,6,7-tetrahydro-1-[(4-methoxy-3-methylphenyl)methyl]-1H-imidazo-[4,5-c]pyridine-6-carboxylic acid] | -16 |  |
| 0.1 | O=C(O)C1Cc2c(ncn2CCC23CC4CC(CC(C4)C2)C3)CN1C(=O)C(c1ccccc1)c1ccccc1 (stereo not drawn) [Example 2, 1-(2-(1-Adamantyl)ethyl)-5-diphenylacetyl-4,5,6,7-tetrahydro-1H-imidazo[4,5-c]pyridine-6-carboxylic acid] | -26 |  |
| 1 | O=C(O)C1Cc2c(ncn2Cc2ccccc2)CN1C(=O)C(c1ccccc1)c1ccccc1 (stereo not drawn) [Example 169, 5-(Diphenylacetyl)-4,5,6,7-tetrahydro-1-(phenylmethyl)-1H-imidazo[4,5-c]pyridine-6-carboxylic acid] | -20 |  |
| 0.19 | O=C(O)C1Cc2c(ncn2Cc2ccc(C(F)(F)F)cc2)CN1C(=O)C(c1ccccc1)c1ccccc1 (stereo not drawn) [Example 21, 1-(4-Trifluoromethylphenyl)methyl-5-diphenylacetyl-4,5,6,7 tetrahydro-1H-imidazo[4,5-c]pyridine-6-carboxylic acid] | -18 |  |
|  | CC(C)N1C(=O)C2Cc3[nH]cnc3CN2C1=S (stereo not drawn) [Example 162, 1,4,6,7,8a,9-Hexahydro-7-(1-methylethyl)-6-thioxo-8H-diimidazo-(1,5-a:4',5'-d]pyridine-8-one] |  | -39 |
|  | COc1ccc(N2C(=O)C3Cc4c(ncn4Cc4ccc([N+](=O)[O-])c(C)c4)CN3C2=O)cc1 (stereo not drawn) [Example 273, 1H-Diimidazo[1,5-c:4',5'-d]pyridine-6,8(4H,7H)-dione, 8a,9-dihydro-7-(4-methoxyphenyl)-1-[(3-methyl-4nitrophenyl)methyl], monohydrochloride] |  | -14 |
|  | O=C1C2Cc3[nH]cnc3CN2C(=S)N1c1ccccc1 (stereo not drawn) [Example 161, 1,4,6,7,8a,9-Hexahydro-7-phenyl-6-thioxo-8H-diimidazo[1,5-a:4',5'-d]pyridine-8-one] |  | -28 |
|  | CC(C)N1C(=O)C2Cc3c(ncn3Cc3ccccc3)CN2C1=O (stereo not drawn) [Example 130, 8a,9-Dihydro-7-(1-methylethyl)-1-(phenylmethyl)-1H-diimidazo[1,5-a:4',5'-d]pyridine-6,8(4H,7H)-dione hydrobromide] |  | -21 |
| 2.1 | O=C(O)[C@@H]1Cc2c(ncn2Cc2ccccc2)CN1C(=O)C(c1ccc(F)cc1)c1ccc(F)cc1 [Example 23, (S)-5-[bis(4-fluorophenyl)acetyl]-4,5,6,7-tetrahydro-1-(phenylmethyl)-1H-imidazo[4,5-c]pyridine-6-carboxylic acid] | -22 |  |
| 0.69 | O=C(O)C1Cc2c(ncn2Cc2ccccc2O)CN1C(=O)C(c1ccccc1)c1ccccc1 (stereo not drawn) [Example 17, 1-(2-Hydroxyphenyl)methyl-5-diphenylacetyl-4,5,6,7-tetrahydro-1H-imidazo[4,5-c]pyridine-6-carboxylic acid] | -21 |  |
|  | COc1ccc(N2C(=O)C3Cc4[nH]cnc4CN3C2=O)cc1 (stereo not drawn) [Example 155, 8a,9-Dihydro-7-(4-methoxyphenyl)-1H-diimidazo[1,5-a:4',5'-d]pyridine-6,8(4H,7H)-dione] |  | -39 |
|  | COc1ccc(N2C(=O)C3Cc4c(ncn4Cc4ccccc4)CN3C2=S)cc1 (stereo not drawn) [Example 128, 6,7,8a,9-Tetrahydro-7-(4-methoxyphenyl)-1-(phenylmethyl)-6-thioxo-1H-diimidazo[1,5-a:4',5'-d]pyridine-8(4H)-one] |  | -32 |
|  | CC(C)N1C(=O)C2Cc3nc[nH]c3CN2C1=O (stereo not drawn) [Example 154, 8a,9-Dihydro-7-(1-methylethyl)-3H-diimidazo[1,5-a:4',5'-d]-pyridine-6,8(4H,7H)-dione] |  | -39 |
|  | COc1ccc(N2C(=O)C3Cc4[nH]cnc4CN3C2=S)cc1 (stereo not drawn) [Example 159, 1,4,6,7,8a,9-Hexahydro-7-(4-methoxyphenyl)-6-thioxo-8H-diimidazo[1,5-a:4',5'-d]pyridine-8-one] |  | -39 |
| 8 | O=C(O)C1Cc2c(ncn2Cc2ccccc2)CN1C(=O)C1c2ccccc2-c2ccccc21 (single isomer, unassigned) [Example 29, 1H-Imidazo[4,5-c]pyridine-6-carboxylic acid, 5-[(9H-fluoren-9-yl)carbonyl]-4,5,6,7-tetrahydro-1-(phenylmethyl)-, (+)-] |  |  |
|  | COc1ccc(Cn2cnc3c2C[C@@H](C(=O)O)N(C(=O)C(c2ccc(C)cc2)c2ccc(C)cc2)C3)cc1C [Example 25, (S)-[bis(4-methylphenyl)acetyl]-4,5,6,7-tetrahydro-1-[(4-methoxy-3-methylphenyl)methyl]-1H-imidazo[4,5-c]-pyridine-6-carboxylic acid] | -12 |  |
